From ChEMBL document CHEMBL5360581, “Discovery of a novel dual functional phenylpyrazole-styryl hybrid that induces apoptotic and autophagic cell death in bladder cancer cells” (Eur J Med Chem, 2023)
Active and inactive are the calls of the source. No cut-off for these calls is given here.

Experiments:
SW-620 = assay: Antiproliferative activity against human SW620 cells assessed as reduction in cell viability at 20 uM measured for 72 hrs by MTT assay; format: functional, cell-based
MCF7 = assay: Cytotoxicity against human MCF7 cells assessed inhibition of cell growth incubated for 72 hrs by MTT assay; format: functional, cell-based; conditions: MCF7, 72 h
[1] = Cytotoxicity against human NHDF cells assessed inhibition of cell growth incubated for 72 hrs by MTT assay; format: toxicity, cell-based
[2] = Selectivity index, ratio of IC50 for cytotoxicity against human NHDF cells to IC50 for cytotoxicity against human SW620 cells
[3] = Selectivity index, ratio of IC50 for cytotoxicity against human NHDF cells to IC50 for cytotoxicity against human MCF7 cells; format: toxicity, cell-based; conditions: NHDF cells and MCF7 cells, read-out: Ratio IC50
EJ-28 [4] = assay: Induction of morphological changes in human EJ-28 cells assessed as intracellular vacuolization at 7.5 uM incubated for 24 to 72 hrs by microscopic analysis; format: functional, cell-based; conditions: time 24-72 hrs
SV-HUC-1 = assay: Induction of morphological changes in human SV-HUC-1 cells at 7.5 uM incubated for 24 to 72 hrs by microscopic analysis; format: functional, cell-based; conditions: time 24-72 hrs
[5] = Cytotoxicity against human SV-HUC-1 cells assessed as reduction in cell viability at 7.5 uM incubated for 72 hrs by MTT assay; format: toxicity, cell-based; conditions: sv-huc-1, 72 h
EJ-28 [6] = assay: Inhibition of colony formation in human EJ-28 cells at 2.5 to 10 uM incubated for 10 days by crystal violet staining based assay; format: functional, cell-based; conditions: dose 2.5-10 µM, time 10.0 day
EJ-28 [7] = assay: Inhibition of colony formation in human EJ-28 cells at 1.25 uM incubated for 10 days by crystal violet staining based assay; format: functional, cell-based; conditions: time 10.0 day
EJ-28 [8] = assay: Antimigratory activity in human EJ-28 cells at 1.25 to 10 uM measured for 24 hrs by imaging analysis; format: functional, cell-based; conditions: dose 1.25-10 µM
EJ-28 [9] = assay: Induction of cell cycle arrest in human EJ-28 cells assessed as accumulation of cells at sub-G0/G1 phase at 1.25 uM incubated for 48 hrs by propidium iodide staining based flow cytometry (reference value: 48%); format: functional
EJ-28 [10] = assay: Induction of cell cycle arrest in human EJ-28 cells assessed as accumulation of cells at sub-G0/G1 phase at 2.5 uM incubated for 48 hrs by propidium iodide staining based flow cytometry (reference value: 48%); format: functional
EJ-28 [11] = assay: Induction of cell cycle arrest in human EJ-28 cells assessed as accumulation of cells at S phase at 1.25 uM incubated for 48 hrs by propidium iodide staining based flow cytometry (reference value: 30%); format: functional
EJ-28 [12] = assay: Induction of cell cycle arrest in human EJ-28 cells assessed as accumulation of cells at G2/M phase at 1.25 uM incubated for 48 hrs by propidium iodide staining based flow cytometry (reference value: 20%); format: functional
EJ-28 [13] = assay: Induction of apoptosis in human EJ-28 cells incubated for 24 to 72 hrs by AnnexinV-FITC/propidium iodide staining based flow cytometry analysis; format: functional, cell-based; conditions: dose 1.25-10 µM, time 24-72 hrs
EJ-28 [14] = assay: Induction of apoptosis in human EJ-28 cells assessed as downregulation of procaspase-3 expression incubated for 24 to 72 hrs by Western blotting analysis; format: functional, cell-based; conditions: time 24-72 hrs
EJ-28 [15] = assay: Induction of apoptosis in human EJ-28 cells assessed as downregulation of procaspase-7 expression incubated for 24 to 72 hrs by Western blotting analysis; format: functional, cell-based; conditions: time 24-72 hrs
EJ-28 [16] = assay: Induction of apoptosis in human EJ-28 cells assessed as upregulation of PARP expression incubated for 24 hrs by Western blotting analysis; format: functional, cell-based
EJ-28 [17] = assay: Induction of apoptosis in human EJ-28 cells assessed as upregulation of Bcl-2 expression incubated for 24 hrs by Western blotting analysis; format: functional, cell-based
EJ-28 [18] = assay: Induction of apoptosis in human EJ-28 cells assessed as upregulation of phosphorylated Bcl-2 level incubated for 24 to 72 hrs by Western blotting analysis; format: functional, cell-based; conditions: time 24-72 hrs
EJ-28 [19] = assay: Induction of apoptosis in human EJ-28 cells assessed as upregulation of Bcl-xL expression incubated for 24 hrs by Western blotting analysis; format: functional, cell-based
EJ-28 [20] = assay: Induction of apoptosis in human EJ-28 cells assessed as upregulation of cleaved bid expression incubated for 24 hrs by Western blotting analysis; format: functional, cell-based
EJ-28 [21] = assay: Induction of autophagy in human EJ-28 cells assessed as increase in green fluorescence intensity incubated for 24 hrs by flow cytometry analysis; format: functional, cell-based; conditions: dose 5-12.5 µM
EJ-28 [22] = assay: Induction of autophagy in human EJ-28 cells assessed as increase in green fluorescence intensity at 5 to 12.5 uM incubated for 36 to 48 hrs by flow cytometry analysis; format: functional, cell-based; conditions: dose 5-12.5 µM, time 36-48 hrs
EJ-28 [23] = assay: Induction of autophagy in human EJ-28 cells assessed as upregulation of LC3B-I expression at 5 to 12.5 uM incubated for 24 to 72 hrs by Western blot analysis; format: functional, cell-based; conditions: dose 5-12.5 µM, time 24-72 hrs
EJ-28 [24] = assay: Induction of autophagy in human EJ-28 cells assessed as upregulation of Atg12 expression at 5 to 12.5 uM incubated for 24 to 72 hrs by Western blot analysis; format: functional, cell-based; conditions: dose 5-12.5 µM, time 24-72 hrs
EJ-28 [25] = assay: Induction of autophagy in human EJ-28 cells assessed as upregulation of Atg16L1 expression at 5 to 12.5 uM incubated for 24 to 72 hrs by Western blot analysis; format: functional, cell-based; conditions: dose 5-12.5 µM, time 24-72 hrs
EJ-28 [26] = assay: Induction of autophagy in human EJ-28 cells assessed as downregulation of mTOR expression at 5 to 12.5 uM incubated for 24 hrs by Western blot analysis; format: functional, cell-based; conditions: dose 5-12.5 µM
EJ-28 [27] = assay: Induction of autophagy in human EJ-28 cells assessed as upregulation of AKT expression at 5 to 12.5 uM incubated for 24 hrs by Western blot analysis; format: functional, cell-based; conditions: dose 5-12.5 µM
EJ-28 [28] = assay: Induction of autophagy in human EJ-28 cells assessed as upregulation of AKT expression at 5 to 12.5 uM incubated for 48 to 72 hrs by Western blot analysis; format: functional, cell-based; conditions: dose 5-12.5 µM, time 48-72 hrs
HEK293 = assay: Cytotoxicity against HEK293 cells expressing EGFR assessed as inhibition of cell growth incubated for 24 to 72 hrs; format: toxicity, cell-based; conditions: human, time 24-72 hrs
EJ-28 [29] = assay: Anticancer activity against human EJ-28 cells cultured as 3D spheroids assessed as decrease in spheroid volume at 5 to 20 uM measured upto 5 days by fluorescence microscopic analysis; format: functional, cell-based; conditions: dose 5-20 µM, time <= 5.0 day
[30] = Toxicity in Zebrafish embryo assessed as delay in hatching at 12.5 to 50 uM administered for 4 hrs post fertilization and measured after 72 hours post fertilization; design: species or system Danio rerio; conditions: in vivo, dose 12.5-50 µM
[31] = Toxicity in Zebrafish embryo assessed as mortality at 12.5 to 50 uM administered for 4 hrs post fertilization and measured after 72 hours post fertilization; design: species or system Danio rerio; conditions: in vivo, dose 12.5-50 µM
[32] = Toxicity in Zebrafish embryo assessed as oedema at 12.5 uM administered for 4 hrs post fertilization and measured after 3 days post fertilization; design: species or system Danio rerio; conditions: in vivo, 72 h, time 3 day
[33] = Toxicity in Zebrafish embryo assessed as lack of pigmentation at 12.5 uM administered for 4 hrs post fertilization and measured after 3 days post fertilization; design: species or system Danio rerio; conditions: in vivo, 72 h, time 3 day
[34] = Toxicity in Zebrafish embryo assessed as mild bradycardia at 12.5 to 25 uM administered for 4 hrs post fertilization and measured after 3 days post fertilization; design: species or system Danio rerio; conditions: in vivo, 72 h, dose 12.5-25 µM, time 3 day

## O=[N+]([O-])c1cccc(/C=C/c2cc(-c3cc(Cl)ccc3O)n(-c3ccccc3)n2)c1
SW-620
  Activity: Active
MCF7
  IC50: 8.8 µM
[1]
  IC50 at 72 h: 39.7 µM
[2]
  Ratio IC50: 2.6
[3]
  selectivity ratio: 2.6
EJ-28 [4]
  Activity: Active
SV-HUC-1
  Activity: inactive
[5]
  Activity: Non-Toxic
EJ-28 [6]
  inhibition: Active
EJ-28 [7]
  inhibition: inactive
EJ-28 [8]
  inhibition: Active
EJ-28 [9]
  Activity: 53%
EJ-28 [10]
  Activity: 57%
EJ-28 [11]
  Activity: 27%
EJ-28 [12]
  Activity: 18%
EJ-28 [13]
  Activity: Dose-Dependent Effect
EJ-28 [14]
  Activity: Active
EJ-28 [15]
  Activity: Active
EJ-28 [16]
  Activity: Active
EJ-28 [17]
  Activity: Active
EJ-28 [18]
  Activity: Active
EJ-28 [19]
  Activity: inactive
EJ-28 [20]
  Activity: Active
EJ-28 [21]
  Activity: Dose-Dependent Effect
EJ-28 [22]
  Activity: inactive
EJ-28 [23]
  Activity: Active
EJ-28 [24]
  Activity: Active
EJ-28 [25]
  Activity: inactive
EJ-28 [26]
  Activity: Active
EJ-28 [27]
  Activity: Active
EJ-28 [28]
  Activity: Active
HEK293
  Activity: Non-Toxic
EJ-28 [29]
  Activity: Active
[30]
  Activity: Non-Toxic
[31]
  Activity: Non-Toxic
[32]
  Activity: Non-Toxic
[33]
  Activity: Non-Toxic
[34]
  Activity: Non-Toxic
